Test results published in patent EP4566586A1, “SKIN-CARE PRODUCT COMPOSITION AND PHARMACEUTICAL COMPOSITION COMPRISING SULFONATED CALIXARENE, AND USE OF SULFONATED CALIXARENE” (Calix Biotechnology (Hangzhou) Co., Ltd, priority 2022, dated 2024).
≈ marks a conversion by molar mass, not a printed value. Marks after values point to notes of the source that are not given here.

Assays:
[1] = Solubilization of Vitamin A by sulfonated calixarene (UV absorption); assay type: physicochemical
Description: Testing Method: UV Absorption Spectroscopy.
In 3 mL of deionized water, 5 mg (an excess amount) of Vitamin A was added, and the mixture was shaken overnight. The mixture was then centrifuged to collect the supernatant, and the UV Absorption Curve of the supernatant was measured (Figure 5).
Excess Va was added to each of these three solutions at a concentration of 5 mg/mL and shaken on a shaker to enhance the solubility of Va. After 24 hours, each group of solution was diluted 40-fold for UV absorption wavelength measurement. Meanwhile, Va was dissolved in methanol solution to prepare a 4 mM Va methanol stock solution. The Va methanol stock solution was then diluted in water to prepare a 5 µM Va standard solution with methanol as a solvent aid, which was used for UV absorption wavelength measurement.
An excess amount of Va was added to each of these solutions at 5 mg/mL, and the solutions were agitated on a shaking table to enhance the solubility of Va. After 24 hours, each group of solutions was diluted by an appropriate multiple (to fit the standard working curve described below) and used for the measurement of UV absorbance intensity.
A standard working curve for Va was prepared. A methanol solution containing 4 mM of Va was prepared. […] Subsequently, the UV absorbance intensities of these six groups of solutions with different concentrations of Va were measured, and a standard working curve was prepared.

[2] = UV titration, binding constants between SC8A-12C and skincare active substances; settings: 25°C, 1:1 host-guest direct binding model; for Binding constants Ka: host SC8A-12C, active substance 15 µM in deionized water
Description: (§1) Test Method: UV titration.
Test Equipment: A Japan Shimadzu UV-3600 UV-Visible Spectrophotometer, equipped with a temperature control module (model: PTC-348WI), was used. The samples were tested using Shimadzu's quartz cuvettes with an optical path length of 10 mm.
(§2) Reagents: Vitamin A (Va) was purchased from Shanghai Macklin Biochemical Technology Co., Ltd, retinoic acid was purchased from Heowns Biochem Technologies, LLC, Tianjin, and other skincare active substances were commercially available products.
(§3) Va was dissolved in methanol to a concentration of 2 mM. During the test, the Va stock solution was added to a cuvette and adjusted to a volume of 3 mL with deionized water, resulting in a concentration of 10 µM. […] The binding constant Kα for the host-guest inclusion was determined.
During the test, the retinoic acid stock solution was added to a cuvette and adjusted to a volume of 3 mL with deionized water, resulting in a concentration of 15 µM.
During the test, the stock solution of the active substance was added to a cuvette and adjusted to a volume of 3 mL with deionized water, resulting in a concentration of 15 µM. […] The UV titration data were fitted using a 1:1 host-guest direct binding model to determine the binding constant Kα for the host-guest inclusion.

[3] = physchem; settings: water
Description: Test Method: UV Absorption Spectroscopy.
The UV absorption intensities were measured, and a standard working curve was prepared. […] The mixtures were shaken overnight and then centrifuged to collect the supernatant for UV absorption curve detection.

[4] = Solubilization of Retinoic acid by sulfonated calixarene (UV absorption); assay type: physicochemical; settings: 5 mg retinoic acid in 3 mL deionized water, shaken overnight, supernatant UV
Description: Testing Equipment: A Japan Shimadzu UV-3600 UV-Visible Spectrophotometer, equipped with a temperature control module (model: PTC-348WI), was used. The samples were tested using Shimadzu's quartz cuvettes with an optical path length of 10 mm.
Excess retinoic acid was added to each of the three groups of solutions at a concentration of 5 mg/mL, followed by ultrasonic treatment to enhance the solubility of retinoic acid. After 20 mins, each group of solution was diluted 10-fold for UV absorption wavelength measurement. At the same time, 5 mg (an excess amount) of retinoic acid was added to 3 mL of deionized water, the mixture was shaken overnight, centrifuged to obtain the supernatant. […] Retinoic acid was dissolved in methanol solution to prepare a stock solution of 4 mM retinoic acid in methanol. After 20 mins, the stock solution of retinoic acid in methanol was diluted in water to prepare a retinoic acid standard solution with an appropriate concentration, for UV absorption wavelength detection. […]
A standard working curve for retinoic acid was prepared. […] Subsequently, the UV absorbance intensities of these six groups of solutions with different concentrations of retinoic acid were measured, and a standard working curve was prepared.

[5] = Skin permeability test of retinoic acid (transdermal diffuser); assay type: in vitro ADME; settings: ointment base (cream), retinoic acid 1% (w/w), pig skin, 37°C, 24 hours
Description: Testing Method: Skin Permeability Test
Testing Equipment: TP-6 Intelligent Transdermal Diffuser (Tianjin Jingtuo Instrument Technology Co., Ltd.)
Undamaged sections were cut into uniform thickness pieces, approximately 2 cm × 2 cm in size, wrapped in plastic wrap, and stored at -20°C for later use.
The concentration of retinoic acid in the inclusion complex was determined by UV detection, and subsequently diluted to 0.1% (w/w). Additionally, 3 mg of retinoic acid was weighed and mixed with 297 mg of cream in a mortar. The mixture was thoroughly ground to dissolve retinoic acid in the cream, resulting in a retinoic acid concentration of 1% (w/w).
The skin was placed between the diffusion and receptor compartments after thawing. The receptor compartment was filled with the receptor solution (deionized water), and all air bubbles were expelled. The receptor compartment was maintained at 37°C in a circulating water bath throughout the experiment. The transdermal diffuser was activated, with a magnetic stirring speed set at 300 r·min^-1. After 24 hours, the solutions from the receptor compartments of each group were collected for UV detection.

[6] = UV titration, binding constants between SC8A-12C and skincare active substances; settings: host SC8A-12C, active substance 15 µM in deionized water, 25°C, 1:1 host-guest direct binding model
Description: as §1, §2
as §3, with “The change in UV absorption intensity was recorded after each addition of the SC8A-12C stock solution. […] The” for “The”
SC8A-12C stock solution and retinoic acid stock solution were first prepared. […] During the test, the retinoic acid stock solution was added to a cuvette and adjusted to a volume of 3 mL with deionized water, resulting in a concentration of 15 µM. […] The change in UV absorption intensity was recorded after each addition of the SC8A-12C stock solution.
During the test, the stock solution of the active substance was added to a cuvette and adjusted to a volume of 3 mL with deionized water, resulting in a concentration of 15 µM. […] The change in UV absorption intensity was recorded after each addition of the SC8A-12C stock solution. […]

[7] = Stabilization of Va by SC8A-12C (UV-visible spectrophotometry); assay type: physicochemical; settings: free Va, methanol as a solvent aid, stored for two days in the dark
Description: Testing Method: UV-Visible Spectrophotometry.
Va was dissolved in methanol to prepare a Va methanol solution with a concentration of 4 mM, which was then kept in the dark for two days. The UV absorptions of both the freshly prepared and the two-day stored Va methanol solutions were tested. During the testing, the Va methanol solution was first added to a cuvette, and deionized water was used to adjust the volume to 3 mL, achieving a final concentration of Va at 10 µM.

[8] = Skin permeability test of Va (transdermal diffuser); assay type: in vitro ADME; settings: Va 0.4% (w/w), pig skin, 37°C, 55 hours
Description: Undamaged sections were cut into uniform thickness pieces approximately 2 cm × 2 cm in size, wrapped in plastic wrap, and stored at -20°C for later use. 0.8 mg of Va and 200 mg of skincare cream (ointment base) were weighed and added to a mortar. The mixture was thoroughly ground to dissolve Va in the skincare cream, resulting in a Va concentration of 0.4% (w/w). Subsequently, 0.8 mg of Va was weighed and dispersed in 200 µL of water by thoroughly shaking to prepare a suspension of Va (water base), with a Va concentration of 0.4% (w/w). […] The concentration of Va in the inclusion complex was also 0.4% (w/w). The skin was placed between the diffusion and receptor compartments after thawing. The receptor compartment was filled with the receptor solution (deionized water), and all air bubbles were expelled. The receptor compartment was maintained at 37°C in a circulating water bath throughout the experiment. The transdermal diffuser was activated, with a magnetic stirring speed set at 300 r·min^-1. After 55 hours, the solutions from the receptor compartments of each group were collected for UV detection.

Compound | Binding constants Ka [2] | also measured
O=S(=O)(O)c1cc2c(O)c(c1)Cc1cc(S(=O)(=O)O)cc(c1O)Cc1cc(S(=O)(=O)O)cc(c1O)Cc1cc(S(=O)(=O)O)cc(c1O)C2 [SC4A, Sulfonated calix[4]arene] |  | solubilization of Va [1]: failed to solubilize Va
O=S(=O)(O)c1cc2c(O)c(c1)Cc1cc(S(=O)(=O)O)cc(c1O)Cc1cc(S(=O)(=O)O)cc(c1O)Cc1cc(S(=O)(=O)O)cc(c1O)Cc1cc(S(=O)(=O)O)cc(c1O)Cc1cc(S(=O)(=O)O)cc(c1O)Cc1cc(S(=O)(=O)O)cc(c1O)Cc1cc(S(=O)(=O)O)cc(c1O)C2 [SC8A, Sulfonated calix[8]arene] |  | solubilization of Va [1]: failed to solubilize Va
OC[C@H]1O[C@@H](Oc2ccc(O)cc2)[C@H](O)[C@@H](O)[C@@H]1O [arbutin] | 4.3±0.5×10^3 M^-1 | 
O=C1O[C@H]([C@@H](O)CO)C(O)=C1O[C@H]1O[C@H](CO)[C@@H](O)[C@H](O)[C@H]1O [ascorbyl glucoside] | 5.2±0.3×10^3 M^-1 | 
O=C(O)CCCCCCCC(=O)O [azelaic acid] | 5.2±0.1×10^3 M^-1 | 
Cn1c(=O)c2c(ncn2C)n(C)c1=O [caffeine] | 3.2±0.8×10^3 M^-1 | 
CC(C)CCC[C@@H](C)[C@H]1CC[C@H]2[C@@H]3CC=C4C[C@@H](O)CC[C@]4(C)[C@H]3CC[C@]12C [cholesterol] | 2.3±0.5×10^5 M^-1 | 
CCCCCCCCCCO[C@@H]1O[C@H](CO)[C@@H](O)[C@H](O)[C@H]1O [decyl glucoside] | 3.3±0.5×10^4 M^-1 | 
CCCCCCOC(=O)c1ccccc1C(=O)c1ccc(N(CC)CC)cc1O [diethylamino hydroxybenzoyl hexyl benzoate] | 3.8±0.3×10^3 M^-1 | 
Nc1ccc(C(=O)OCC(O)CO)cc1 (stereo not shown) [glyceryl p-aminobenzoate] | 2.9±0.2×10^3 M^-1 | 
CC(c1ccccc1)c1ccc(O)cc1O (stereo not shown) [phenylethyl resorcinol] |  | solubility [3]: 4900 µg/mL (≈ 22.9 mM)
CC1=C(/C=C/C(C)=C/C=C/C(C)=C/C(=O)O)C(C)(C)CCC1 [retinoic acid] |  | solubility of retinoic acid in water [4]: hardly soluble; retinoic acid in the receptor compartment (UV absorption peak) [5]: no absorption peak of retinoic acid was detected
OC[C@@H](O)[C@@H](O)[C@H](O)[C@@H](O)CO [sorbitol] | 5.3±0.4×10^3 M^-1 | 
ceramides | 6.5±0.2×10^3 M^-1 | 
cocamidopropyl betaine | 0.8±0.1×10^4 M^-1 | 
palmitoyl tripeptide-5 |  | Binding constants Ka [6]: 6.3±0.6×10^3 M^-1
proanthocyanidins | 2.6±0.3×10^3 M^-1 | 
sphingolipids | 2.5±0.5×10^3 M^-1 | 
vitamin A | 4.4±0.5×10^5 M^-1 | binding constant Kα of SC8A-12C ([2]; guest Va 10 µM (317 nm) or retinoic acid 15 µM): (4.0 ± 0.5) ×10^5 M^-1; solubility of Va in water ([1]; 5 mg Va in 3 mL deionized water, shaken overnight, supernatant UV): almost insoluble; [dissolved Va] ([1]; [SC8A-12C] 0 µM, Not detected under UV): 0* µM; UV absorption of the Va aqueous solution after storage [7]: significantly decreased; Va in the receptor compartment ([8]; ointment base): no Va was detected; permeability of Va ([8]; water base (suspension)): not good enough
vitamin E | 2.6±0.4×10^3 M^-1 | 
α-bisabolol | 2.8±0.6×10^4 M^-1 | 
